# Reference: patent US20220372040A1, “METTL3 MODULATORS” (Accent Therapeutics, Inc., priority 2020, published 2022)
# Like-named read-outs stand apart in the source and are kept apart here.
# What was measured:
# [1] = target: METTL1/WDR4 (Homo sapiens, UniProt Q9UBP6); test: METTL1 assay (3H-SAM flashplate scintillation); type: biochemical
# Outline: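 Radiometric methyltransfer by METTL1/WDR4 (6.25 nM f.c., 5 min preincubation) at ambient temperature in HEPES pH 7.5, KCl, MgCl2, DTT; started with 25 nM 3′-biotinylated RNA and 60 nM 3H-SAM, run 20 min, quenched with 15 μM cold SAM. Product captured on streptavidin flashplates (2 h, 25° C), counted by scintillation.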
# [2] = target: T1, METTL16 (Homo sapiens, UniProt Q86W50); test: METTL16 assay (3H-SAM flashplate scintillation); type: biochemical; settings: METTL16 100 nM, RNA 50 nM, 3H-SAM 200 nM, SAM 800 nM, 20 min
# T1 sequence (Q86W50 1-562): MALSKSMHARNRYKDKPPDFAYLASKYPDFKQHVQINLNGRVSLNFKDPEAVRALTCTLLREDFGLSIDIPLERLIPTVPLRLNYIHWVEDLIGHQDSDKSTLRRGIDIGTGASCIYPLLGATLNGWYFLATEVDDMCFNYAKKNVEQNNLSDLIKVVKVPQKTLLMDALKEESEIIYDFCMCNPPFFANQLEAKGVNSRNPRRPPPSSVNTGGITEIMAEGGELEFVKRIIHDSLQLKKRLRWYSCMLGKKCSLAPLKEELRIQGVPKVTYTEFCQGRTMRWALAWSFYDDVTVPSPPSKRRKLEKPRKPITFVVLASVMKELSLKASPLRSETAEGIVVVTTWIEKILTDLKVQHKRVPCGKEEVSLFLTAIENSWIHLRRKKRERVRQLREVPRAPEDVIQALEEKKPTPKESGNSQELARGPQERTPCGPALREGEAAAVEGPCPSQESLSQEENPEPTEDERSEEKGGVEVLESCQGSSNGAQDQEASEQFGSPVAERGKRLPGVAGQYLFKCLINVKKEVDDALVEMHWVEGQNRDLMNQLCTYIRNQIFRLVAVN
# Outline: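 Radiometric methyltransferase reaction at ambient temperature in 20 mM HEPES pH 7.5, 50 mM KCl, 1 mM DTT, with 100 nM enzyme preincubated 5 min with compound. It was started with 50 nM 3′-biotinylated RNA, 200 nM 3H-SAM plus 800 nM cold SAM, run 20 min, then quenched with excess cold SAM. Product was captured on streptavidin flashplates and scintillation-counted.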
# [3] = test system: MOLM-13 cells; test: MOLM-13 96 Hour cell proliferation assay (Cell Titer-Glo); type: cell-based; settings: Homo sapiens
# Outline: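 MOLM-13 cells were seeded at 600 cells/well in RPMI 1640 with 10% FBS, then incubated overnight. Compounds were added at 0.25% DMSO final for 96 h at 37° C, with CellTiter-Glo luminescence read-out. Values normalized to staurosporine (100% death) and DMSO (0%); IC50 from 4-parameter logistic fit.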
# [4] = METTL1/WDR4 6.25 nM, RNA 25 nM, 3H-SAM 60 nM, 20 min, read-out: METTL1 IC50
# METTL1/WDR4, sequence (Q9UBP6 whole entry, species assumed): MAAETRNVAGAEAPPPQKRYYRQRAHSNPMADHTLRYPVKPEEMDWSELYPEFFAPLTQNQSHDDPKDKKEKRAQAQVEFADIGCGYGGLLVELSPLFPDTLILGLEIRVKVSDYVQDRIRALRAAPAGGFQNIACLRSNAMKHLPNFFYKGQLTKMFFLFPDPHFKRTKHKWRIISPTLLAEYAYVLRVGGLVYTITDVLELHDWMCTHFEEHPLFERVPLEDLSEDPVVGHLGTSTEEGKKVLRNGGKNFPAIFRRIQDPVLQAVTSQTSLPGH
# METTL1/WDR4, sequence (P57081 whole entry partner, species assumed): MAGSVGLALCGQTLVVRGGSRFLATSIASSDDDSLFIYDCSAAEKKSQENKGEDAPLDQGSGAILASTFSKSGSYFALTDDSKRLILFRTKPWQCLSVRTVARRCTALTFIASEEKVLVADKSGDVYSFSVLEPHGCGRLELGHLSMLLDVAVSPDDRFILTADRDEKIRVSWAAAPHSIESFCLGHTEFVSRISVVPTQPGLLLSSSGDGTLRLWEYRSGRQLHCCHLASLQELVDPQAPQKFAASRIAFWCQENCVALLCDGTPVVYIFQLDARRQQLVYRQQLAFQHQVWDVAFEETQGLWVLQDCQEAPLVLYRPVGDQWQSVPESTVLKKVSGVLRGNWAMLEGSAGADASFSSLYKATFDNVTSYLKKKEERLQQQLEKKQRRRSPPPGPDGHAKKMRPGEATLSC
SMILES,"IC50 [1, 4] [µM]",IC50 [2] [µM],IC50 [3] [µM],IC50 [1] [µM]
CNc1ccc2ccc(OCc3cncc(-n4cc(CC5CC5)c5c(N)ncnc54)c3)cc2n1 [Compound I-29],> 1,> 1,,
CNc1ccc2ccc(CCc3cncc(-n4ccc5c(N)ncnc54)c3)cc2n1 [Compound I-30],> 1,> 1,,
CNc1ccc2ccc(OCc3cc(CO)cc(-n4cc(Cl)c5c(N)ncnc54)c3)cc2n1 [Compound I-34],> 1,> 1,,
CNc1ccc2ccc(OCc3cncc(-n4cc(-c5ccnn5C)c5c(N)ncnc54)c3)cc2n1 [Compound I-35],> 1,> 1,,
CNc1ccc2ccc(OCc3cncc(-n4c(C)cc5c(N)ncnc54)c3)cc2n1 [Compound I-36],> 1,> 1,,
CNc1ccc2ccc(OCc3cncc(-n4cc(C5CCCC5)c5c(N)ncnc54)c3)cc2n1 [Compound I-58],,> 1,< 1,
CCNc1ccc2ccc(OCc3cccc(-n4cc(Cl)c5c(N)ncnc54)c3)cc2n1 [Compound I-61],> 1,> 1,1 to 10,
CNc1ccc2cc(CCc3cccc(-n4cc(Cl)c5c(N)ncnc54)c3)ccc2n1 [Compound I-70],> 1,> 1,1 to 10,
"CNc1ccc2ccc(OCc3cncc(-n4cc(Cl)c5c(N)ncnc54)c3)cc2n1 [Compound I-74, 7-((5-(4-amino-5-chloro-7H-pyrrolo[2,3-d]pyrimidin-7-yl)pyridin-3-yl)methoxy)-N-methylquinolin-2-amine]",> 1,> 1,1 to 10,
CNc1ccc2ccc(OCc3cc(Br)cc(-n4cc(Cl)c5c(N)ncnc54)c3)cc2n1 [Compound I-75],> 1,> 1,1 to 10,
CNc1ccc2ccc(OCc3cccc(-n4cc(Cl)c5c(N)ncnc54)c3)cc2n1 [Compound I-87],> 1,> 1,1 to 10,
Nc1nc2cc(OCc3cncc(-n4ccc5c(N)ncnc54)c3)ccc2cc1Br [Compound I-111],> 1,> 1,≥ 10,
CNc1ccc2ccc(OCc3cncc(-n4cc([C@H]5CCCO5)c5c(N)ncnc54)c3)cc2n1 [Compound I-112],,> 1,< 1,> 1
CNc1ccc2ccc(OCc3cncc(-n4cc([C@@H]5CCCO5)c5c(N)ncnc54)c3)cc2n1 [Compound I-113],,> 1,1 to 10,> 1
Cn1ccc(-c2cn(-c3cncc(CCc4ccc5ccc(N)nc5c4)c3)c3ncnc(N)c23)n1 [Compound I-114],> 1,> 1,1 to 10,
CCc1cc(NCCOC)c2ccc(CCc3cncc(-n4cc(-c5ccn(C)n5)c5c(N)ncnc54)c3)cc2n1 [Compound I-115],,> 1,< 1,> 1
CNc1ccc2ccc(CCc3cncc(-n4cc(F)c5c(N)ncnc54)c3)cc2n1 [Compound I-116],> 1,> 1,1 to 10,
CCc1cc(N(C)CCOC)c2ccc(CCc3cncc(-n4cc(-c5ccn(C)n5)c5c(N)ncnc54)c3)cc2n1 [Compound I-117],,> 1,< 1,> 1
CCc1cc(N2CCC(F)(F)CC2)c2ccc(OCc3cncc(-n4ccc5c(N)ncnc54)c3)cc2n1 [Compound I-118],> 1,> 1,1 to 10,
CNc1ccc2ccc(OCc3cncc(-n4cc(C(C)C5CC5)c5c(N)ncnc54)c3)cc2n1 (stereo not drawn) [Compound I-120],> 1,> 1,1 to 10,
CCc1cc(N2CCNCC2)c2ccc(OCc3cncc(-n4cc(-c5ccn(C)n5)c5c(N)ncnc54)c3)cc2n1 [Compound I-121],> 1,> 1,< 1,
CCc1cc(NC)c2ccc(CCc3cncc(-n4cc(-c5ccn(C)n5)c5c(N)ncnc54)c3)cc2n1 [Compound I-122],> 1,> 1,< 1,
Cn1ccc(-c2cn(-c3cncc(CCc4ccc5cc(Br)c(N)nc5c4)c3)c3ncnc(N)c23)n1 [Compound I-123],> 1,> 1,1 to 10,
C[C@@H]1CCN1c1ccc2ccc(OCc3cncc(-n4cc(C5CCCC5)c5c(N)ncnc54)c3)cc2n1 [Compound I-124],> 1,> 1,1 to 10,
Nc1ncnc2c1c(C1CCCO1)cn2-c1cncc(CCc2ccc3ccc(N4CCC4)nc3c2)c1 (stereo not drawn) [Compound I-126],> 1,> 1,1 to 10,
CCc1cc(NCCCN(C)C)c2ccc(CCc3cncc(-n4ccc5c(N)ncnc54)c3)cc2n1 [Compound I-127],> 1,> 1,≥ 10,
CCNc1ccc2ccc(OCc3cncc(-n4cc(-c5ccn(C)n5)c5c(N)ncnc54)c3)cc2n1 [Compound I-128],> 1,> 1,1 to 10,
CNc1ccc2ccc(OCc3cncc(-n4cc(-c5ccc(C)o5)c5c(N)ncnc54)c3)cc2n1 [Compound I-234],> 1,> 1,1 to 10,
CNc1ccc2ccc(OCc3cncc(-n4cc(-c5ncco5)c5c(N)ncnc54)c3)cc2n1 [Compound I-235],> 1,> 1,≥ 10,
